The text below walks through data of patent US11034960B2, “PKLR inhibition in the treatment of NAFLD and HCC” (ScandiEdge Therapeutics AB, priority 2017, dated 2021).

Data set [1] has as its system primary human hepatocytes. The experiment in a line: mRNA expression in primary human hepatocytes treated with C75 (TaqMan real-time PCR). It is filed as cell-based. Conditions: 40 μg/ml C75, 4, 6, 8 or 24 hours, FIG. 3F. The method, then: Human primary hepatocytes were purchased from Biopredic International. Twenty-four hours after arrival (48 hours after isolation), human hepatocytes were treated with 40 μg/ml of C75 or dimethyl sulfoxide (DMSO) for 4, 6, 8 or 24 hours.
Total RNA was isolated from human hepatocytes and snap-frozen mouse liver with an RNeasy Mini Kit (Qiagen). cDNA was synthesized with a high-capacity cDNA Reverse Transcription Kit (Applied Biosystems) and random primers. The mRNA expression levels of genes of interest were analyzed via TaqMan real-time PCR in a ViiATM7 System (Applied Biosystems). The TaqMan Gene Expression assays used were Mm01263610_m1 (for mouse Pcsk9), Mm00662319_m1 (mouse Fasn), Mm00443090_m1 (mouse Pklr), Mm00504420_m1 (mouse Pnpla3), Mm01282499_m1 (mouse Hmgcr), Hs00545399_m1 (human PCSK9), Hs01005622_m1 (human FASN), Hs00176075_m1 (human PKLR), Hs00228747_m1 (human PNPLA3), and Hs00168352_m1 (human HMGCR) (all from Applied Biosystems). Hprt (mouse Mm03024075_m1) and GADPH (human Hs02758991_g1) (Applied Biosystems) were used as internal controls.
On the technique in general: In qPCR the cycle at which signal appears reflects the starting amount.

Data set [2] relates to HepG2 cells. The experiment in a line: Cell growth of HepG2 cells (Cell Counting Kit-8) after interference for 72 hours. It counts as cell-based, human. The following applies: different concentrations of C75 (0, 20, 40, 60, 80 μM), FIG. 2D. As to the method:
(§1) RNA was isolated for RT-PCR after interference for 24 hours; GAPDH was set as the internal reference. Cell counting was performed after interference for 72 hours. Data are presented as the means±standard errors of five independent experiments. Comparisons were performed by one-way ANOVA. Samples without any interference were assigned as controls. * represents a significant difference compared with the value in the control group (P<0.05).
(§2) For subsequent experiments, K562 and HepG2, human immortalized myelogenous leukemia and hepatic cell lines, respectively, were selected. Both cell lines were cultured in RPMI-1640 medium (R2405, Sigma-Aldrich) supplemented with 10% fetal bovine serum (FBS, F2442, Sigma Aldrich) and incubated in 5% CO2 humidity at 37° C. […]
(§3) Total RNA was isolated with TRIzol reagent (15596026, Thermo Fisher Scientific) after treatment with C75 or siRNA for 24 hours. The expression profiles of key genes (FASN, PKLR in K562/HepG2, and PNPLA3, PCSK9 only in HepG2 cells) in the co-expression network were measured and analyzed via quantitative real-time PCR with iTaq Universal SYBR Green One-Step Kit (1725151, Bio-Rad), using anchored oligo (dT) primer based on CFX96™ detection system (Bio-Rad). […] Variation in cell proliferation was detected with a Cell Counting Kit-8 (CCK-8, CK04, Dojindo) after interference by C75/siRNA for 72 hours. […]
Background: Formazan colour is commonly taken as a measure of viable cells.

Data set [3] relates to K562 cells. The experiment in a line: RT-PCR gene expression in K562 cells after interference by C75 or PKLR-specific siRNA for 24 hours. It counts as cell-based, human. Conditions: C75 at different concentrations (0, 40, 60 μM), FIG. 2A. As to the method:
as §1, §2, §3

Data set [4] relates to HepG2 cells. The data set is described as follows: RT-PCR gene expression in HepG2 cells after interference by C75 or PKLR-specific siRNA for 24 hours. It counts as cell-based, human. The following applies: C75 (0, 40, 60 μM), FIG. 2C. As to the method: as §1
For subsequent experiments, K562 and HepG2, human immortalized myelogenous leukemia and hepatic cell lines, respectively, were selected. Both cell lines were cultured in RPMI-1640 medium (R2405, Sigma-Aldrich) supplemented with 10% fetal bovine serum (FBS, F2442, Sigma Aldrich) and incubated in 5% CO2 humidity at 37° C.
To confirm the speculated CN, chemical inhibitors and RNA interference (RNAi) assays were chosen to interfere with the immortalized cell lines (including K562 and HepG2) and the subsequent candidate gene expression and cell growth patterns were observed. More specifically, the experimental protocol was as follows: (1) C75 (C5490, Sigma-Aldrich), as a well-known fatty acid synthase [FAS] inhibitor, was added to cells at 80% confluence with a final concentration of 20, 40, 60, or 80 μM (taking cells without C75 interference as the control); (2) cells at 80% confluence were separately transfected with […] of Silencer® pre-designed PKLR-targeted siRNAs (clone ID: 53 (SEQ ID NO:2 and SEQ ID NO:3), 54 (SEQ ID NO:2 and SEQ ID NO:5), Life Technologies) at 15 nM by using Lipofectamine® RNAiMAX (13778075, Life Technologies). Cells incubated in medium with non-target negative control siRNA at 15 nM (4390843, Life Technologies) were assigned as the control.
Total RNA was isolated with TRIzol reagent (15596026, Thermo Fisher Scientific) after treatment with C75 or siRNA for 24 hours. The expression profiles of key genes (FASN, PKLR in K562/HepG2, and PNPLA3, PCSK9 only in HepG2 cells) in the co-expression network were measured and analyzed via quantitative real-time PCR with iTaq Universal SYBR Green One-Step Kit (1725151, Bio-Rad), using anchored oligo (dT) primer based on CFX96™ detection system (Bio-Rad). GAPDH was set as the internal control for normalization. The primer sequences were SEQ ID NO:9 (FASN forward), SEQ ID NO:10 (FASN reverse), SEQ ID NO:11 (PKLR forward), SEQ ID NO:12 (PKLR reverse), SEQ ID NO:13 (PNPLA3 forward), SEQ ID NO:14 (PNPLA3 reverse), SEQ ID NO:15 (PCSK9 forward), SEQ ID NO:16 (PCSK9 reverse), SEQ ID NO:17 (GAPDH forward) and SEQ ID NO:18 (GAPDH reverse). Variation in cell proliferation was detected with a Cell Counting Kit-8 (CCK-8, CK04, Dojindo) after interference by C75/siRNA for 72 hours. […]

Data set [5] has as its system K562 cells. The data set is described as follows: Cell growth of K562 cells (Cell Counting Kit-8) after interference for 72 hours. It is filed as cell-based, human. The following applies: C75 (0, 20, 40, 60, 80 μM), FIG. 2B. As to the method:
as §1, §2, §3

In data set [6] the test system is HepG2 cells. The experiment in a line: Lipidomics measurement of triglycerides in HepG2 cells with PKLR downregulation. It counts as cell-based, human. The method, then:
To better clarify the genetic impact of PKLR on lipid deposition, cells were treated by siRNA and then tested by mass spectrometer for lipidomics data, sequentially. To be specific, HepG2 cells were transfected by siRNA (Assay ID: 53 with target on PKLR, applied by aforementioned method) for 72 hours and then harvested for lipidomics measurement. Correspondingly, cells treated with non-targeting siRNA (4390843, Thermo Fisher Scientific, USA) were assigned as control.
For lipidomics measurement, cells were extracted using butanol/methanol (BUME) as previously described (Lofgren et al., 2012). Internal standards (either deuterated or containing heptadecanoyl (C17:0) fatty acids) were added during the extraction. Analysis of triacylglycerols and phosphatidylcholines were made using direct infusion on a QTRAP 5500 mass spectrometer (Sciex, Concord, Canada) equipped with a robotic nanoflow ion source, the TriVersa NanoMate (Advion BioSciences, Ithaca, N.J.). Detection of triacylglycerols was made using neutral loss scanning in positive mode (Murphy et al., 2007). Phosphatidylcholines were analyzed in positive mode using m/z 184 (phosphocholine) as fragment ion (Brugger et al., 1997).

For the next data set, the system named is PKLR. The experiment in a line: qPCR of target gene expression in HepG2 cells after siRNA or expression plasmid transfection. It is filed as cell-based, human. The following applies: siRNA 50 nM, 72 hours, P<0.05. As to the method:
HepG2 cell line was purchased from ATCC and selected for subsequent genetic modification. Cells were routinely cultured in humidified incubator with 5% CO2 at 37°. Cells were maintained by RPMI 1640 medium (R2405, Sigma-Aldrich) with 10% fetal bovine serum (FBS, F7524, Sigma-Aldrich).
For downregulation of target genes, PKLR, PNPLA3, and PCSK9, RNAi experiment was performed by silencer predesigned siRNA kit (Assay ID: 53 for PKLR, 121938 for PNPLA3 and 103966 for PCSK9, Thermo Fisher Scientific, USA). According to the manufacturer's instructions, HepG2 cells were treated by specific siRNA at 50 nM of final concentration using reverse transfection on the help of Lipofectamine RNAiMAX for 72 hours. Negative Control for transfection (4390843, Thermo Fisher Scientific, USA) was selected as standard for comparison from the same company. […]
Cells were treated for experiment when they were grown to 80% confluence. […] Expressions of target genes were validated by quantitative real-time PCR (Schmittgen and Livak, 2008). […] And the relative expression of each gene was calculated by 2-ΔΔCT method described before (Schmittgen and Livak, 2008). β-actin was selected as internal reference gene for normalization.
All results of measurement were presented/shown by mean±SD and One-way ANOVA was applied for comparisons in quantitative covariates. […]

Turning to `C=C1C(=O)OC(CCCCCCCC)C1C(=O)O` (stereo not shown) [C75], the “expression of FASN in relation to expression of PKLR, PCSK9, PNPLA3” value in data set [1] was “interconnected”. Moreover, the cell growth result in the data set on HepG2 cells [2] was “significantly decreased”. Besides, in the data set with K562 cells [3], the FASN expression level result was “significantly decreased” and the PKLR expression level entry is “significantly decreased”. In the data set on HepG2 cells [4], the FASN expression level entry was “significantly decreased”, the PCSK9 expression level entry is recorded as “significantly decreased”, the PKLR expression level entry is on record as “significantly decreased” and the PNPLA3 expression level result is “significantly decreased”. In the data set with K562 cells [5], the cell growth entry is given as “significant decrease”.
For the molecule “siRNA 53: PKLR-targeted Silencer pre-designed siRNA; sense sequence SEQ ID NO:5, antisense sequence SEQ ID NO:6 (sense GGAGAUGAUCAAGGCCGGGTT; antisense CCCGGCCUUGAUCAUCUCCTT; chemistry not given here; listed as Homo sapiens)”, in the data set with HepG2 cells [6] (after adjusting based on the phosphatidylcholines levels), the “decrease of total triglyceride compared to negative control” value is listed as “about 15%”. In addition, in the data set on HepG2 cells [6] (siRNA 72 hours vs non-targeting negative control, P<0.05), the triglyceride level result is reported as “significant decrease”. For the same molecule, the “total triglyceride adjusted based on the phosphatidylcholines levels” value in the data set on HepG2 cells [6] (siRNA 72 hours, negative control 555.0±51.2) is reported as 471.7±45.5. Moreover, the “inhibitory rate of PKLR expression (down-regulation vs negative control)” value with PKLR was found to be 96%.
